Results from patent US20200399238A1, “THERAPEUTIC AURONES” (MIDDLE TENNESSEE STATE UNIVERSITY, priority 2016, published 2020).

Assays:
[1] = test system: C. tropicalis (ATCC strain 750); test: Antifungal microdilution broth assay (PrestoBlue), C. tropicalis; type: cell-based; conditions: Candida tropicalis, ATCC750; Table 5
Experimental: (§1) Sigma-Aldrich) was used as the base medium for testing. […] solution of morpholinepropanesulfonic acid (MOPS; Sigma-Aldrich) was added to the RPMI to a final concentration of 0.165 M for buffering (RPMI-MOPS). This medium was adjusted to a pH of 7.0 with 10 M NaOH and filter sterilized. C. albicans (ATCC strain 90028), C. [NT] strain 66032), and C. tropicalis (ATCC strain 750) were cultured on potato dextrose agar (Sigma-Aldrich) plates, and incubated at 35° C. for 24 hours. For antifungal testing, overnight colonies were adjusted to 1.5×10^3 cells/mL, hereafter referred to as the test inoculum. […] Reduction of the compound from resazurin to resorufin is proportional to the number of metabolically active cells and can be quantified by measuring relative fluorescence units (RFUs). […] PrestoBlue was added to a final concentration of 10% in each well and fluorescence read at 560 nm excitation and 590 nm emission, per manufacturer instructions, using a SpectraMax M2e spectrophotometer (Molecular Devices, LLC, Sunnyvale, Calif.). […] The calculated Z', as described below, was compared to RFU readings and the optimal PrestoBlue incubation time was determined to be 75 minutes. IC50 determination was calculated using GraphPad Prism version 7.01 for Windows (GraphPad Software, Inc., La Jolla, Calif.) from the RFUs at dilution points. […]

S. cerevisiae = test: Antifungal microdilution broth assay, S. cerevisiae; type: cell-based; conditions: Saccharomyces cerevisiae; Table 5
Text: A microdilution broth method (CLSI, Reference Method for Broth Dilution Antifungal Susceptibility Testing of Yeasts, Approved Standard-Third Edition, Clinical Laboratory Standards Institute, Wayne, Pa., 2008) was followed with some modifications for the testing of potential antifungal compounds Corning CellGro RPMI 1640 with glutamine, without bicarbonate buffer, with phenol red (RPMI; Sigma-Aldrich) was used as the base medium for testing. A 1 M solution of morpholinepropanesulfonic acid (MOPS; Sigma-Aldrich) was added to the RPMI to a final concentration of 0.165 M for buffering (RPMI-MOPS). This medium was adjusted to a pH of 7.0 with 10 M NaOH and filter sterilized.
PrestoBlue® (Life Technologies, Invitrogen, Carlsbad, Calif.), a resazurin-based cell viability reagent that, in metabolically active cells, is reduced from blue, non-fluorescent resazurin, to red, fluorescent resorufin, was used to assess inhibition of yeast growth by the aurones. Reduction of the compound from resazurin to resorufin is proportional to the number of metabolically active cells and can be quantified by measuring relative fluorescence units (RFUs). […]
IC50 determination was calculated using GraphPad Prism version 7.01 for Windows (GraphPad Software, Inc., La Jolla, Calif.) from the RFUs at dilution points. […]

[2] = test system: C. glabrata (ATCC strain 66032); test: Antifungal microdilution broth assay (PrestoBlue), C. glabrata; type: cell-based, Candida glabrata; conditions: Nakaseomyces glabratus, ATCC66032; Table 5
Experimental: as §1

IL-1β = test: Cytokine response by ELISA, IL-1β; type: cell-based, human; conditions: LPS-stimulated THP-1, ELISA
Experimental: (§2) Dexamethasone is a synthetic glucocorticoid that suppresses LPS-induced pro-inflammatory cytokine expression and was used as a control (Abraham, Lawrence et al. 2006). Supernatants were collected for human cytokine ELISAs and the manufacturer's protocol was followed to assess the cytokine response. Cells remaining after the supernatant collection were tested for relative viability by Alamar Blue cytotoxicity assay as previously described.

ERK, JNK, p38 = test: Western blot, MAPK phosphorylation, THP-1; conditions: LPS 15 min
Experimental: U0126 is a compound that inhibits MEK1/2 and was used as positive control for ERK phosphorylation inhibition (Hotokezaka, Sakai et al. 2002). Cells were lysed with radio-immunoprecipitation assay (RIPA) lysis buffer that contained a protease and phosphatase inhibitor cocktail. Cell lysates were then tested for protein concentration using a BCA protein assay and diluted with RIPA lysis buffer to normalize protein concentration in all samples. Lysates were mixed with sample loading buffer containing bromophenol blue, glycerol, SDS, and 2-mercaptoethanol. The separated proteins were then transferred onto a nitrocellulose membrane and blocked with 5% BSA in IX Tris-buffered saline with 0.1% Tween-20 for 1 h. The blots were incubated with primary antibodies at 4° C. overnight followed by incubation with HRP-conjugated secondary antibodies for 2 h at 22° C. The membranes were developed by addition of ECL substrate and images were collected with a ChemiDoc XRS+ system chemiluminescence imager (Bio-Rad, Hercules, Calif., USA). Western blot band intensity was quantified using Image Lab software (Bio-Rad, Hercules, Calif., USA). […]

[3] = test system: PMA-differentiated THP-1 cells; test: Alamar Blue cell viability assay, THP-1; type: cell-based, human
Experimental: THP-1 cells were maintained in RPMI 1640 medium supplemented with 10% heat-inactivated FBS and 1% penicillin/streptomycin (complete culture medium) at 37° C. with 5% CO2 supplemented. Cell concentrations were adjusted to desired concentrations for each experiment by centrifugation at 500×g for 5 min and resuspended in complete culture medium with 100 nM of PMA. Cell concentration was adjusted to 5×10^5 cells/ml for all assays with the exception of 2.5×10^5 cells/ml were used for NF-κB nuclear translocation assay. Cells were seeded onto 96-, 24-, or 12-well plates and incubated for 48 to 72 h to allow for differentiation. Cells were washed with serum-free RPMI 1640 medium before each experiment to remove undifferentiated cells. […] Cells were seeded into tissue culture plates at 10% confluence and grown to 80% confluence within 72 h. For live cell microscopy, 1×10^5 cells/ml were seeded into 35 mm glass-bottom (MatTek) dishes 24 h prior to imaging. For luciferase assays, 1.2×10^5 cells/well were seeded into 24-well tissue culture-treated plates.
Following treatment, the relative cell viability was measured by Alamar Blue assay. For Alamar Blue assays, supernatants were replaced with culture medium containing 1× Alamar Blue reagent and incubated overnight. Cell viability was assessed by measuring relative fluorescent units (RFU) on the SpectraMax M2e microplate reader (Molecular Devices Inc., Sunnyvale, Calif., USA) at Ex 560 nm and Em 590 nm. The results were expressed as a percentage relative to LPS alone control cells. The effects of the vehicle control, DMSO, on cell viability were also assessed.
as §2

Structure (SMILES) | IC50 [1] [µM] | melting point [°C] | IC50 (S. cerevisiae) [µM] | IC50 [2] [µM] | reduction of IL-1β expression (IL-1β) [%] | phosphorylation of ERK, JNK, or p38 (ERK, JNK, p38) | THP-1 cell viability (Alamar Blue) ([3]; 100 μM with LPS) | THP-1 cell viability (Alamar Blue) ([3]; 20, 40, 80 μM with LPS for 4 h) | Average % Viability (4 h with LPS) ([3]; THP-1 cells, 20 μM, 4 h with LPS, mean ± SD) [%]
COc1ccc(/C=C2\Oc3c(ccc(O)c3O)C2=O)cc1O [Aurone 1009, (Z)-6,7-dihydroxy-2-(3-hydroxy-4-methoxybenzylidene)benzofuran-3(2H)-one] | 10 | 275 to 280 | 26 | 11 | – | – | – | – | –
O=C1/C(=C/c2ccc(CO)o2)Oc2ccccc21 [aurone 1] | – | – | – | – | 98 | no statistically significant effect | less than 90% | no effect on cell viability | 96.0 ± 0.6
